Reference: patent publication US20150307850A1, “CONDITIONAL REPLICATING VIRAL VECTORS” (priority 2012, published 2015)

How the values were obtained:
[1] = target: FKBP (Homo sapiens, UniProt P62942, F37V); details: F36V FKBP derivative vs wild-type FKBP; cited from earlier work
[2] = tested on: ARPE-19 cells; experiment: Shield-1 concentration dependent progeny virus production (TCID50 assay); assay type: cell-based, human; details: FKBP derivative fused to UL51 or UL52
Method: FKBP fusion proteins used in this study comprise an essential protein (IE1/2, UL51, UL52, UL79, UL84, UL87, IE1/2-UL51) fused to an FKBP derivative (ddIE1/2, ddUL51, ddUL52, ddUL79, ddUL84, ddUL87, and ddIE1/2-UL51). ARPE-19 cells were infected with the various rdCMV viruses comprising the noted fusion proteins, at a multiplicity of 0.01 PFU/cell for 1 hour, washed twice with fresh medium, and incubated in the growth medium containing 0, 0.05, 0.1 0.5 or 2 μM of Shield-1. Seven days post infection, the cell free virus was collected, and virus titers were determined by TCID50 assay on ARPE-19 cells in the presence of 2 μM of Shield 1.
Varying concentrations of Shld-1 were used in additional experiments to further assess viral replication in the presence or absence of Shld-1. ARPE-19 cells were infected by the gH expressing CMV that also contained a FKBP derivative fused to an essential protein at MOI of […]. After infection for 1 hour, the cells were washed twice with fresh medium to remove Shld-1. […] Virus titers were determined by a 50% Tissue Culture Infective Dose (TCID50) assay. Briefly, this dilution assay quantifies the amount of virus required to kill 50% of infected hosts. […] After incubation, the percentage of cell death (i.e. infected cells) was manually observed and recorded for each virus dilution. […]

Sequence of FKBP (P62942 2-108 F37V limits assumed): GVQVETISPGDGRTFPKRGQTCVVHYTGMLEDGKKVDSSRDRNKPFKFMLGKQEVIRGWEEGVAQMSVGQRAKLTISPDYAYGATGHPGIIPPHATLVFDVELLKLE

## CC[C@H](C(=O)N1CCCC[C@H]1C(=O)O[C@H](CCc1ccc(OC)c(OC)c1)c1cccc(OCCN2CCOCC2)c1)c1cc(OC)c(OC)c(OC)c1 [Shield-1]
[1]
  Binding to the F36V derivative compared to wild-type FKBP (tighter): about 1,000 fold
[2]
  Shield-1 concentration that can effectively turn on or off viral replication: 50 nM
